Measurements taken from US11964954B1 (KING FAISAL UNIVERSITY, priority 2023, dated 2024).

Assays:
[1] = tested on: human prostate cancer cells (PC3); experiment: Cytotoxicity by SRB assay, PC3 cells; assay type: cell-based; conditions: for IC50: mean±SD
Procedure: (§1) The human prostate cancer cells (PC3) and human osteosarcoma cells (MG-63) were obtained from Nawah Scientific Inc. (Mokatam, Cairo, Egypt) and cultured in DMEM (Dulbecco's modified eagle's medium), Gibco, USA, supplemented with fetal bovine serum (FBS) at a concentration of 10% and 100 U/mL of penicillin and streptomycin (PS). The cells were incubated at 37° C. in a humidified environment that contained 5% CO2.
(§2) Cells were seeded in 96-well plates as aliquots of 100 μL cell suspension and incubated in a complete media for 24 h. Afterward, cells were treated with N′-[(2-chlorobenzoyl)oxy]-1,3-benzothiazole-2-carboximidamide at diverse concentrations ranging from 0.01 μM to 100 μM for 72 h. Then, cells were fixed at 4° C. for one hour with 150 μL of 10% trichloroacetic acid (TCA). After washing the cells five times with distilled water, 70 μL of sulforhodamine (SRB) solution (0.4% w/v) was added and incubated for 10 min at room temperature in a dark place. Cells were washed with 1% acetic acid three times and allowed to air-dry. Then, 150 μL of Tris pH 10.5 (10 mM) was added, and the absorbance was measured at 540 nm using a BMG LABTECH®-FLUOstar Omega microplate reader (Ortenberg, Germany). Half maximal inhibitory concentrations (IC50) values were calculated for each experiment using GraphPad Prism 6 software. IC50 values were reported as mean±SD.
(§3) The inhibition was calculated using the following equation: Inhibition %=100-Average Viability

[2] = tested on: Bacillus cereus, Staphylococcus aureus, Pseudomonas aeruginosa, Escherichia coli, Aspergillus flavus, Chrysosporium keratinophilum; experiment: Agar plate disc-diffusion antimicrobial screening; assay type: cell-based; conditions: 10 μL of 10 mg/mL in DMSO per disc, result in words only
Procedure: The agar plate disc-diffusion method was applied. Sterilized filter papers (6 mm in diameter) were wetted with 10 μL of a solution of each compound to be tested, containing 10 mg/mL in DMSO, and the discs were allowed to air dry. The discs were then placed onto the surface of agar plates (nutrient agar for bacteria and Sabouraud's dextrose agar for fungi) and seeded with the test organism. Each plate contained 15 mL of the agar medium, previously seeded with 0.2 mL of the broth culture of each organism pre-grown for 18 h. The plates were incubated at 37° C. for 48 h, and 72 h for fungi. The inhibition zones were measured in mm. Discs impregnated with DMSO were used as a control, and its inhibition zone was subtracted from the tested compound actual inhibition zone.
In particular, the present N′-[(2-chlorobenzoyl)oxy]-1,3-benzothiazole-2-carboximidamide was screened against gram positive bacteria, namely Bacillus cereus and Staphylococcus aureus, and gram-negative bacterial strains, namely Pseudomonas aeruginosa and Escherichia coli, while the antifungal activity was screened against Aspergillus flavus and Chrysosporium keratinophilum.

[3] = tested on: human osteosarcoma cells (MG-63); experiment: Cytotoxicity by SRB assay, MG-63 cells; assay type: cell-based; conditions: for IC50: mean±SD
Procedure: as §1, §2, §3

Row | SMILES | inhibition at 10 µg/mL ([1]; Homo sapiens, PC-3, 72 h, Prostate cancer (PC-3), 10 μg/ml, 72 h) | inhibition at 100 µg/mL ([1]; Homo sapiens, PC-3, 72 h, Prostate cancer (PC-3), 100 μg/ml, 72 h) | IC50 ([1]; Homo sapiens, PC-3, 72 h) | IC50 ([1]; PC-3, 72 h) | Inhibition % ([1]; Prostate cancer (PC-3), 10 μg/ml, 72 h, listed as N'-[(2-chlorobenzoyl)oxy]-1,3-benzothiazole-2-carboximidamide) | antimicrobial activity [2] | inhibition at 10 µg/mL ([3]; Homo sapiens, MG-63, 72 h, Osteosarcoma (MG-63), 10 μg/ml, 72 h) | inhibition at 100 µg/mL ([3]; Homo sapiens, MG-63, 72 h, Osteosarcoma (MG-63), 100 μg/ml, 72 h) | IC50 ([3]; Homo sapiens, MG-63, 72 h) | IC50 ([3]; MG-63, 72 h) | Inhibition % ([3]; Osteosarcoma (MG-63), 10 μg/ml, 72 h, listed as N'-[(2-chlorobenzoyl)oxy]-1,3-benzothiazole-2-carboximidamide) | melting point
1 | N/C(Cc1nc2ccccc2s1)=N\OC(=O)c1ccccc1Cl | 95% | 96% | < 4 µM | 2.69 ± 0.03 µM | 95.61% | excellent antimicrobial activities | 95% | 91.3% | < 4 µM | 3.45 µM | 90.17% | 110 to 112 °C
2 | COc1cccc2c1C(=O)c1c(O)c3c(c(O)c1C2=O)C[C@@](O)(C(=O)CO)C[C@@H]3O[C@H]1C[C@H](N)[C@H](O)[C@H](C)O1 [DOX, Doxorubicin, reference compound] | – | – | 7.6 ± 0.45 µM | – | – | – | – | – | 9.4 ± 1.1 µM | – | – | –
